Where a name gives a salt, the structure may show the parent alone.

A short description of data set [1]: Laboratory examination: liver function, blood and urine routine. It is filed as in vivo, human.
For another data set, the system named is bleeding time. Briefly: Bleeding time (Duke Method) in patients. It is filed as in vivo, human. Here is the method: (§1) The basic drugs taken by the patients for treating their cardiovascular and cerebrovascular diseases were maintained the same in terms of dosage and usage during the period for observation, but they are forbidden to take anticoagulant drug, such as aspirin, dipyridamole or Phenylbutazone. The administration was stopped at the end of 4th week and re-examination was performed to observe the change of indexes.
(§2) Duke Method and Test Tube Method were used for determination respectively. The same method was used for the same case. The values are compared before and after the determination, and the changing values are calculated.

Data set [2] is described as follows: Adverse reactions in patients. The source says:
(§3) The course for both experimental group and control group are four weeks.

The test system of data set [3] is platelet aggregation induced by ADP. Briefly: Platelet aggregation induced by ADP in patients after drug administration. The note with it: for platelet aggregation rate: patients, x ± s. The class given is in vivo, human.
Description: • a. The patients with chronic cardiovascular and cerebrovascular diseases, and the course of disease >1 month; • b.
• a. The patients attacked by acute myocardial infarction or stroke in one month; • b. […] The patients with medical history of serious liver, kidney disease, or digestive tract or other organ bleeding; • d. The persons with reduced granulocytes or platelets.
as §3, §1
Induction experiment of two different concentrations of ADP (0.5 μmol/L and 1.0 μmol/L) was performed and re-examination was conducted on the 2nd and 4th weekends.
In Table 1, 0.5 and 1.0 represent the induction rate of 0.5 μmol/L of ADP and 1.0 μmol/L of ADP respectively.

The next data set has as its system clotting time. Briefly: Clotting time (Test Tube Method) in patients. The class given is in vivo, human. Here is the method: as §1, §2
Where [4] appears, read: after taking drug (four-week course).
Setting [5] is: before taking drug (baseline of the group).
Where [6] appears, read: four weeks of one tablet per day oral, induction with 0.5 μmol/L ADP.
Setting [7] is: four weeks of one tablet per day oral, induction with 1.0 μmol/L ADP.
Where [8] appears, read: two weeks of one tablet per day oral, induction with 0.5 μmol/L ADP.
Setting [9] is: two weeks of one tablet per day oral, induction with 1.0 μmol/L ADP.

`Clc1ccccc1CN1CCc2sccc2C1` [TCP, ticlopidine hydrochloride, reference compound]: the “liver function, blood and urine routine” value in data set [1] (in vivo) is reported as “do not change significantly”. Further, the bleeding time in the data set with bleeding time (setting [4]) is 2.29 ± 1.40 min; in the data set with bleeding time (setting [5]) it was 1.73 ± 1.35 min. For the same compound, in data set [2] (human, in vivo, 2 weeks), the “cases with skin rash, hoarseness and mild dysphagia” value came to 2 cases. This compound also returned an adverse reactions incidence in data set [2] (human, in vivo, 4 weeks) of 11.87%. Further, the “incidence of conjunctiva bleeding, purpura and bleeding spot on skin” value in data set [2] (human, in vivo, 4 weeks) amounted to 3.45%. In addition, the platelet aggregation rate in data set [3] (setting [6]) is listed as 32.8 ± 23.1%; in data set [3] (setting [7]) it was 37.2 ± 25.4%; in data set [3] (setting [8]), 28.3 ± 23.8%; in data set [3] (setting [9]), 35.3 ± 20.8%.
As to `CC(C)=CCC[C@](C)(O)[C@H]1CC[C@]2(C)[C@@H]1[C@H](O)C[C@@H]1[C@@]3(C)CC[C@H](O)C(C)(C)[C@@H]3[C@@H](O[C@@H]3O[C@H](CO)[C@@H](O)[C@H](O)[C@H]3O)C[C@]12C` [ginsenoside Rh1], in data set [1] (before taking drugs vs after taking drugs for 4 weeks, all within normal limits), the “liver function, blood and urine routine” value was “do not change significantly”. Besides, the bleeding time in the data set with bleeding time (setting [4]) came to 1.89 ± 1.11 min; with bleeding time (setting [5]), 1.72 ± 1.20 min. The values for the clotting time in the data set on clotting time (setting [4]) and in the data set with clotting time (setting [5]) were 7.83 ± 2.55 min and 7.17 ± 2.59 min, respectively. Further, the adverse reactions incidence in data set [2] (four-week course, mainly dizziness, nausea, conjunctiva bleeding and bleeding spot on skin) is 6.86%. In data set [3] (after taking drugs for 4 weeks), the “platelet aggregation rate compared with the control group (TCP)” value is recorded as “smaller than that of the control group obviously”. Further, the platelet aggregation rate in data set [3] (setting [6]) was found to be 28.8 ± 23.4%; in data set [3] (setting [7]), 34.3 ± 25.6%; in data set [3] (setting [8]) it was 28.7 ± 22.5%; in data set [3] (setting [9]) it was 35.4 ± 23.4%.

(Values after patent US20100286074A1, “PHARMACEUTICAL USE OF G[…] MIXTURE THEREOF AND PHARMACEUTICAL COMPOSITION OF G[…] USE THEREOF” (LIMIN PHARMACEUTICAL FACTORY, LIVZON GROUP, priority 2007, published 2010).)
